Source: PubChem BioAssay AID2060883 (Molecular Pharmacology Branch, DTP, NCI, 2025)
Values belong to the compound of their own block, whether it stands above or below them.

Test system: 843782-103-R-J1-PDC complex spheroid viability
Experiment: Anticancer human tumor 843782-103-R-J1-PDC patient-derived lung adenocarcinoma cell line growth inhibition [RAS]
Settings: for IC50: curve of first compound; for viability, T/C: stronger effect = lower value
Method in brief: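 Multi-cell-type spheroids: tumor cells plus HUVEC endothelial cells and mesenchymal stem cells. RAS-pathway inhibitors were combined with targeted agents, each dosed in half-log steps down from clinical Cmax, or from 10 microM when Cmax was unknown.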

[1] = second compound 0.000949 µM, first compound 0.00316 µM
[2] = second compound 0.000949 µM, first compound 0.01 µM
[3] = second compound 0.000949 µM, first compound 0.0316 µM
[4] = second compound 0.000949 µM, first compound 0.1 µM
[5] = second compound 0.000949 µM, first compound 0.316 µM
[6] = second compound 0.000949 µM, first compound 1 µM
[7] = second compound 0.003 µM, first compound 0.00316 µM
[8] = second compound 0.003 µM, first compound 0.01 µM
[9] = second compound 0.003 µM, first compound 0.0316 µM
[10] = second compound 0.003 µM, first compound 0.1 µM
[11] = second compound 0.003 µM, first compound 0.316 µM
[12] = second compound 0.003 µM, first compound 1 µM
[13] = second compound 0.00949 µM, first compound 0.00316 µM
[14] = second compound 0.00949 µM, first compound 0.01 µM
[15] = second compound 0.00949 µM, first compound 0.0316 µM
[16] = second compound 0.00949 µM, first compound 0.1 µM
[17] = second compound 0.00949 µM, first compound 0.316 µM
[18] = second compound 0.00949 µM, first compound 1 µM
[19] = second compound 0.03 µM, first compound 0.00316 µM
[20] = second compound 0.03 µM, first compound 0.01 µM
[21] = second compound 0.03 µM, first compound 0.0316 µM
[22] = second compound 0.03 µM, first compound 0.1 µM
[23] = second compound 0.03 µM, first compound 0.316 µM
[24] = second compound 0.03 µM, first compound 1 µM
[25] = second compound 0.0949 µM, first compound 0.00316 µM
[26] = second compound 0.0949 µM, first compound 0.01 µM
[27] = second compound 0.0949 µM, first compound 0.0316 µM
[28] = second compound 0.0949 µM, first compound 0.1 µM
[29] = second compound 0.0949 µM, first compound 0.316 µM
[30] = second compound 0.0949 µM, first compound 1 µM
[31] = second compound 0.3 µM, first compound 0.00316 µM
[32] = second compound 0.3 µM, first compound 0.01 µM
[33] = second compound 0.3 µM, first compound 0.0316 µM
[34] = second compound 0.3 µM, first compound 0.1 µM
[35] = second compound 0.3 µM, first compound 0.316 µM
[36] = second compound 0.3 µM, first compound 1 µM
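Note: viability read after seven days of compound exposure.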

- IC50 (second compound 0.000949 µM): 5.42 nM
- IC50 (second compound 0.003 µM): 2.24 nM
- IC50 (second compound 0.00949 µM): < 0.949 nM
- IC50 (second compound 0.03 µM): < 0.949 nM
- IC50 (second compound 0.0949 µM): < 0.949 nM
- IC50 (second compound 0.3 µM): < 0.949 nM
Structure (SMILES): CC1(C)CCC(Nc2ncc(C(F)(F)F)c(-c3c[nH]c4c(P(C)(C)=O)c(C#N)ccc34)n2)CN1 (stereo unspecified) + CCn1c(-c2cc(N3CCN(C)CC3)cnc2C(C)OC)c2c3cc(ccc31)-c1csc(n1)CC(NC(=O)C1CC1C)C(=O)N1CCCC(N1)C(=O)OCC(C)(C)C2
- viability, T/C (second compound 0.000949 µM, first compound 0.000949 µM): 72.5%
- viability, T/C (second compound 0.000949 µM, first compound 0.003 µM): 68.5%
- viability, T/C (second compound 0.000949 µM, first compound 0.00949 µM): 32.6%
- viability, T/C (second compound 0.000949 µM, first compound 0.03 µM): 14.2%
- viability, T/C (second compound 0.000949 µM, first compound 0.0949 µM): 12%
- viability, T/C (second compound 0.000949 µM, first compound 0.3 µM): 11.8%
- viability, T/C (second compound 0.003 µM, first compound 0.000949 µM): 60.5%
- viability, T/C (second compound 0.003 µM, first compound 0.003 µM): 46.6%
- viability, T/C (second compound 0.003 µM, first compound 0.00949 µM): 22.8%
- viability, T/C (second compound 0.003 µM, first compound 0.03 µM): 14.1%
- viability, T/C (second compound 0.003 µM, first compound 0.0949 µM): 11.1%
- viability, T/C (second compound 0.003 µM, first compound 0.3 µM): 11%
- viability, T/C (second compound 0.00949 µM, first compound 0.000949 µM): 39.2%
- viability, T/C (second compound 0.00949 µM, first compound 0.003 µM): 29.3%
- viability, T/C (second compound 0.00949 µM, first compound 0.00949 µM): 18.7%
- viability, T/C (second compound 0.00949 µM, first compound 0.03 µM): 10.5%
- viability, T/C (second compound 0.00949 µM, first compound 0.0949 µM): 12.1%
- viability, T/C (second compound 0.00949 µM, first compound 0.3 µM): 10.9%
- viability, T/C (second compound 0.03 µM, first compound 0.000949 µM): 20.1%
- viability, T/C (second compound 0.03 µM, first compound 0.003 µM): 21.7%
- viability, T/C (second compound 0.03 µM, first compound 0.00949 µM): 14.5%
- viability, T/C (second compound 0.03 µM, first compound 0.03 µM): 12.2%
- viability, T/C (second compound 0.03 µM, first compound 0.0949 µM): 10.5%
- viability, T/C (second compound 0.03 µM, first compound 0.3 µM): 9.54%
- viability, T/C (second compound 0.0949 µM, first compound 0.000949 µM): 18.7%
- viability, T/C (second compound 0.0949 µM, first compound 0.003 µM): 18.2%
- viability, T/C (second compound 0.0949 µM, first compound 0.00949 µM): 14.1%
- viability, T/C (second compound 0.0949 µM, first compound 0.03 µM): 12.2%
- viability, T/C (second compound 0.0949 µM, first compound 0.0949 µM): 10.3%
- viability, T/C (second compound 0.0949 µM, first compound 0.3 µM): 10.3%
- viability, T/C (second compound 0.3 µM, first compound 0.000949 µM): 14.5%
- viability, T/C (second compound 0.3 µM, first compound 0.003 µM): 14.3%
- viability, T/C (second compound 0.3 µM, first compound 0.00949 µM): 11.9%
- viability, T/C (second compound 0.3 µM, first compound 0.03 µM): 11.7%
- viability, T/C (second compound 0.3 µM, first compound 0.0949 µM): 11.5%
- viability, T/C (second compound 0.3 µM, first compound 0.3 µM): 10.1%

- IC50 (second compound 0.000949 µM): 78.2 nM
- IC50 (second compound 0.003 µM): 194 nM
- IC50 (second compound 0.00949 µM): 76.4 nM
- IC50 (second compound 0.03 µM): 167 nM
- IC50 (second compound 0.0949 µM): 92.2 nM
- IC50 (second compound 0.3 µM): 110 nM
Structure (SMILES): C=CC(=O)Nc1cc(Nc2nccc(-c3cn(C)c4ccccc34)n2)c(OC)cc1N(C)CCN(C)C + CCn1c(-c2cccnc2C(C)OC)c2c3cc(ccc31)N1CCOC(CC(NC(=O)C(C(C)C)N(C)C(=O)C3(F)CCN(C(=O)C#CC(C)(C)N(C)C)CC3)C(=O)N3CCCC(N3)C(=O)OCC(C)(C)C2)C1
- viability, T/C [1]: 75.9%
- viability, T/C [2]: 60.9%
- viability, T/C [3]: 68.2%
- viability, T/C [4]: 45.1%
- viability, T/C [5]: 33.5%
- viability, T/C [6]: 31.5%
- viability, T/C [7]: 68.7%
- viability, T/C [8]: 57.3%
- viability, T/C [9]: 66.3%
- viability, T/C [10]: 64.3%
- viability, T/C [11]: 39.6%
- viability, T/C [12]: 30.9%
- viability, T/C [13]: 67.5%
- viability, T/C [14]: 69.1%
- viability, T/C [15]: 73%
- viability, T/C [16]: 43.9%
- viability, T/C [17]: 40.8%
- viability, T/C [18]: 26.8%
- viability, T/C [19]: 65.9%
- viability, T/C [20]: 73.6%
- viability, T/C [21]: 58.9%
- viability, T/C [22]: 55.3%
- viability, T/C [23]: 44.4%
- viability, T/C [24]: 31.9%
- viability, T/C [25]: 73.4%
- viability, T/C [26]: 62.6%
- viability, T/C [27]: 60.8%
- viability, T/C [28]: 46.9%
- viability, T/C [29]: 43%
- viability, T/C [30]: 26.4%
- viability, T/C [31]: 68%
- viability, T/C [32]: 66.2%
- viability, T/C [33]: 63.9%
- viability, T/C [34]: 51.6%
- viability, T/C [35]: 35.2%
- viability, T/C [36]: 31.5%

- IC50 (second compound 0.000949 µM): 18.2 nM
- IC50 (second compound 0.003 µM): 17.4 nM
- IC50 (second compound 0.00949 µM): 22 nM
- IC50 (second compound 0.03 µM): 14.8 nM
- IC50 (second compound 0.0949 µM): 24.3 nM
- IC50 (second compound 0.3 µM): 16.2 nM
Structure (SMILES): O=C(c1ccc(F)c(F)c1Nc1ccc(I)cc1F)N1CC(O)([C@@H]2CCCCN2)C1 + CCn1c(-c2cccnc2C(C)OC)c2c3cc(ccc31)N1CCOC(CC(NC(=O)C(C(C)C)N(C)C(=O)C3(F)CCN(C(=O)C#CC(C)(C)N(C)C)CC3)C(=O)N3CCCC(N3)C(=O)OCC(C)(C)C2)C1
- viability, T/C [1]: 74.1%
- viability, T/C [2]: 56.1%
- viability, T/C [3]: 42.7%
- viability, T/C [4]: 31.9%
- viability, T/C [5]: 20.1%
- viability, T/C [6]: 11.8%
- viability, T/C [7]: 72.2%
- viability, T/C [8]: 49.3%
- viability, T/C [9]: 43.2%
- viability, T/C [10]: 35.1%
- viability, T/C [11]: 20.1%
- viability, T/C [12]: 9.69%
- viability, T/C [13]: 69.7%
- viability, T/C [14]: 58%
- viability, T/C [15]: 47.1%
- viability, T/C [16]: 30.9%
- viability, T/C [17]: 19.2%
- viability, T/C [18]: 11.9%
- viability, T/C [19]: 58.6%
- viability, T/C [20]: 58.1%
- viability, T/C [21]: 38.9%
- viability, T/C [22]: 27.9%
- viability, T/C [23]: 20.1%
- viability, T/C [24]: 12.3%
- viability, T/C [25]: 75%
- viability, T/C [26]: 61.4%
- viability, T/C [27]: 43.7%
- viability, T/C [28]: 36.5%
- viability, T/C [29]: 22.9%
- viability, T/C [30]: 11.7%
- viability, T/C [31]: 62.9%
- viability, T/C [32]: 59.7%
- viability, T/C [33]: 38.2%
- viability, T/C [34]: 26.8%
- viability, T/C [35]: 23.2%
- viability, T/C [36]: 13.9%
